The text below walks through data of article PMC3857843, “Multiple Transport-Active Binding Sites Are Available for a Single Substrate on Human P-Glycoprotein (ABCB1)” (PLoS ONE, 2013).

The target in series [1] is T1, Y307C/Q725C/V982C mutant Pgp (Homo sapiens, UniProt P08183, C1074A/C1125A/C1227A/C137A/C431A/C717A/C956A/Q725C/V982C/Y307C). As to the kind of experiment: Inhibition of IAAP photo-labeling of Pgp in crude membranes. On the procedure: (§1) Then, samples were photocrosslinked with IAAP at 4°C as described in the Materials and Methods section. Mean values from at least three independent experiments are plotted and error bars depict SD.
(§2) High-Five insect cells (Invitrogen, Carlsbad, CA) were infected with recombinant baculovirus carrying the human MDR1 cDNA cysless WT and various mutant Pgps, with a His6-tag at the C-terminus as described previously. Crude membranes were prepared as described previously
(§3) The crude membranes of High-Five insect cells containing 60-80 µg protein per 100 µL in 50 mM MES-Tris buffer (pH 6.8), were incubated for 10 minutes at 37°C in the absence (control) and presence of compound(s) at indicated concentration.

Series [2] has as its target cysless WT Pgp (human MDR1) (Homo sapiens, UniProt P08183, C1074A/C1125A/C1227A/C137A/C431A/C717A/C956A). The description is as above. The note with it: human, pH 6.8. On the procedure: as §1, §2, §3
The target of series [3] is T2, cysless WT Pgp (Homo sapiens, UniProt P08183, C1074A/C1125A/C1227A/C137A/C431A/C717A/C956A). The series is described as above. On the procedure: as §1, §2, §3
In another series the target is F728C mutant Pgp (Homo sapiens, UniProt P08183, C1074A/C1125A/C1227A/C137A/C431A/C717A/C956A/F728C). In words: Vanadate-sensitive ATP hydrolysis of Pgp in crude membranes. The note with it: Verapamil 50 µM, QZ59-SSS 1 µM, Valinomycin 10 µM, FSBA 1 mM. Here is the method:
(§4) Vanadate-sensitive Pgp-mediated ATP hydrolysis was measured as described in Materials and Methods. […] At least two independent experiments were carried out for each mutant with indicated compounds. Additional information including standard deviations, fold-stimulation or % inhibition, and number of experiments is given in the section (Tables S2 and S3).
as §2
(§5) Crude membranes (10-25 µg protein/100 µ L) from High Five insect cells expressing cysless WT or mutant Pgp were incubated in the presence and absence of sodium orthovanadate (0.3 mM), in a buffer containing 50 mM MES-Tris pH 6.8, 50 mM KCl, 5 mM NaN3, 1 mM EGTA, 1 mM ouabain, 2 mM DTT, and 10 mM MgCl2. […] The reaction was initiated by addition of 5 mM ATP and continued for 20 min at 37°C. […] The reaction was stopped by addition of 100 µ L of 5% SDS and the amount of inorganic phosphate generated was quantified with a colorimetric reaction, as previously described.

In another series the target is Q725A mutant Pgp (Homo sapiens, UniProt P08183, C1074A/C1125A/C1227A/C137A/C431A/C717A/C956A/Q725A). Described as above. The note with it: Verapamil 50 µM, QZ59-SSS 1 µM, Valinomycin 10 µM. On the procedure:
as §4, §2, §5

The next series concerns the target Y307C mutant Pgp (Homo sapiens, UniProt P08183, C1074A/C1125A/C1227A/C137A/C431A/C717A/C956A/Y307C). The series is described as above. The conditions noted are these: Verapamil 50 µM, QZ59-SSS 1 µM, Valinomycin 10 µM, FSBA 1 mM. On the procedure: as §4, §2, §5
Series [4] addresses T1, Y307C/Q725C/V982C mutant Pgp. Described as above. The conditions noted are these: Verapamil 50 µM, QZ59-SSS 1 µM, Valinomycin 10 µM, FSBA 1 mM. Here is the method:
as §4, §2, §5

Series [5] deals with T3, F978C mutant Pgp (Homo sapiens, UniProt P08183, C1074A/C1125A/C1227A/C137A/C431A/C717A/C956A/F978C). Described as above. The conditions noted are these: Verapamil 50 µM, QZ59-SSS 1 µM, Valinomycin 10 µM. On the procedure: as §4, §2, §5
Series [6] has as its target T4, V982C mutant Pgp (Homo sapiens, UniProt P08183, C1074A/C1125A/C1227A/C137A/C431A/C717A/C956A/V982C). Described as above. The note with it: Verapamil 50 µM, QZ59-SSS 1 µM, Valinomycin 10 µM, FSBA 1 mM. Here is the method:
as §4, §2, §5

The next series concerns the target F343C/V982C mutant Pgp (Homo sapiens, UniProt P08183, C1074A/C1125A/C1227A/C137A/C431A/C717A/C956A/F343C/V982C). Described as above. The note with it: Verapamil 50 µM, QZ59-SSS 1 µM, Valinomycin 10 µM, FSBA 1 mM. On the procedure:
as §4, §2, §5

The target of a further series is Y307C/V982C mutant Pgp (Homo sapiens, UniProt P08183, C1074A/C1125A/C1227A/C137A/C431A/C717A/C956A/V982C/Y307C). Described as above. The conditions noted are these: Verapamil 50 µM, QZ59-SSS 1 µM, Valinomycin 10 µM, FSBA 1 mM. On the procedure: as §4, §2, §5
In a further series the target is Q725C mutant Pgp (Homo sapiens, UniProt P08183, C1074A/C1125A/C1227A/C137A/C431A/C717A/C956A/Q725C). The series is described as above. The note with it: Verapamil 50 µM, QZ59-SSS 1 µM, Valinomycin 10 µM, FSBA 1 mM. On the procedure:
as §4, §2, §5

Series [7] addresses T2, cysless WT Pgp. The series is described as above. The conditions noted are these: Verapamil 50 µM, QZ59-SSS 1 µM, Valinomycin 10 µM, FSBA 1 mM. Here is the method: as §4, §2, §5
A further series addresses F728C/V982C mutant Pgp (Homo sapiens, UniProt P08183, C1074A/C1125A/C1227A/C137A/C431A/C717A/C956A/F728C/V982C). The series is described as above. The conditions noted are these: Verapamil 50 µM, QZ59-SSS 1 µM, Valinomycin 10 µM, FSBA 1 mM. Here is the method:
as §4, §2, §5

The next series concerns the target Q725C/V982C mutant Pgp (Homo sapiens, UniProt P08183, C1074A/C1125A/C1227A/C137A/C431A/C717A/C956A/Q725C/V982C). Described as above. The note with it: Verapamil 50 µM, QZ59-SSS 1 µM, Valinomycin 10 µM, FSBA 1 mM. Here is the method: as §4, §2, §5
Another series deals with all mutant Pgps. The description is as above. In kind it is biochemical, human. The conditions noted are these: all mutant Pgps; inhibition measured in presence of verapamil 5 µM. Here is the method: Crude membranes were prepared as described previously
The target of series [8] is Q725C/V982C mutant Pgp (human MDR1) (Homo sapiens, UniProt P08183, C1074A/C1125A/C1227A/C137A/C431A/C717A/C956A/Q725C/V982C). As to the kind of experiment: in vitro. The note with it: pH 6.8. On the procedure:
as §1, §2, §3

The target of series [9] is F978C mutant Pgp (human MDR1) (Homo sapiens, UniProt P08183, C1074A/C1125A/C1227A/C137A/C431A/C717A/C956A/F978C). As to the kind of experiment: in vitro. The conditions noted are these: human, pH 6.8. Here is the method:
as §1, §2, §3

Series [10] concerns the target Q725C mutant Pgp (human MDR1) (Homo sapiens, UniProt P08183, C1074A/C1125A/C1227A/C137A/C431A/C717A/C956A/Q725C). In words: in vitro. The note with it: pH 6.8. On the procedure:
as §1, §2, §3

The target in series [11] is T3, F978C mutant Pgp. As to the kind of experiment: biochemical. On the procedure:
as §1, §2, §3

The target in series [12] is T4, V982C mutant Pgp. As to the kind of experiment: biochemical. Here is the method: as §1, §2, §3
For series [13], the target named is Y307C/Q725C/V982C mutant Pgp (human MDR1) (Homo sapiens, UniProt P08183, C1074A/C1125A/C1227A/C137A/C431A/C717A/C956A/Q725C/V982C/Y307C). In words: in vitro. The note with it: human, pH 6.8. On the procedure:
as §1, §2, §3

Series [14] has as its target V982C mutant Pgp (human MDR1) (Homo sapiens, UniProt P08183, C1074A/C1125A/C1227A/C137A/C431A/C717A/C956A/V982C). In words: in vitro. The conditions noted are these: human, pH 6.8. On the procedure:
as §1, §2, §3

For series [15], the target named is F728C mutant Pgp (human MDR1) (Homo sapiens, UniProt P08183, C1074A/C1125A/C1227A/C137A/C431A/C717A/C956A/F728C). In words: in vitro. The conditions noted are these: pH 6.8. On the procedure:
as §1, §2, §3

With `CC(C)[C@@H]1NC(=O)[C@H](C)OC(=O)[C@@H](C(C)C)NC(=O)[C@@H](C(C)C)OC(=O)[C@H](C(C)C)NC(=O)[C@H](C)OC(=O)[C@@H](C(C)C)NC(=O)[C@@H](C(C)C)OC(=O)[C@H](C(C)C)NC(=O)[C@H](C)OC(=O)[C@@H](C(C)C)NC(=O)[C@@H](C(C)C)OC1=O` [valinomycin], in [1] (Y307C/Q725C/V982C), the “Ability to inhibit IAAP photo-labeling” value is listed as “lose almost completely this ability”. In series [2], the inhibition at 10 min is 82%. For the same compound, the IC50 at cysless WT Pgp [3] turned out to be 600 nM. Moreover, the “ATP hydrolysis, Average” value is given as 23 nmoles Pi/min/mg protein on F728C mutant Pgp; 11 nmoles Pi/min/mg protein on Q725A mutant Pgp; 17 nmoles Pi/min/mg protein on Y307C mutant Pgp; 14 nmoles Pi/min/mg protein in series [4]; 18 nmoles Pi/min/mg protein at F978C mutant Pgp [5]; 13 nmoles Pi/min/mg protein at V982C mutant Pgp [6]. Also, the “ATP hydrolysis, Average” value at F343C/V982C mutant Pgp is 56 nmoles Pi/min/mg protein; at Y307C/V982C mutant Pgp, 33 nmoles Pi/min/mg protein; at Q725C mutant Pgp, 12 nmoles Pi/min/mg protein; on cysless WT Pgp [7] it was 40 nmoles Pi/min/mg protein; at F728C/V982C mutant Pgp, 10 nmoles Pi/min/mg protein; at Q725C/V982C mutant Pgp it was 5 nmoles Pi/min/mg protein. Further, the “ATP hydrolysis, Fold-stimulation” value is on record as 3.9 at F728C mutant Pgp (relative to basal); 2.1 on Q725A mutant Pgp (relative to basal); 2.2 at Y307C mutant Pgp (relative to basal); 2.8 in series [4] (relative to basal); 1.5 at F978C mutant Pgp [5] (relative to basal); 3.1 on F343C/V982C mutant Pgp (relative to basal). For the same compound, the “ATP hydrolysis, Fold-stimulation” value at Y307C/V982C mutant Pgp (relative to basal) is reported as 3.5; at Q725C mutant Pgp (relative to basal), 2.5; on cysless WT Pgp [7] (relative to basal), 1.9; at F728C/V982C mutant Pgp (relative to basal) it was 2.5.
As for `COc1cc2c(cc1OC)CN(CCc1ccc(NC(=O)c3cc(OC)c(OC)cc3NC(=O)c3cnc4ccccc4c3)cc1)CC2` [Tariquidar, tariquidar], the “Modulation of ATP hydrolysis” value in the series with all mutant Pgps is listed as “found to be inhibited”. For the same compound, the inhibition at 10 min in [8] stood at 22%; in series [9] it was 73%; in series [10], 37%; in [13], 23%; in series [14], 64%; in series [15], 40%. The inhibition at 10 min in [2] came out at 97 ± 4%. For the same compound, in series [1], the “Ability to inhibit IAAP photo-labeling” value is “lose almost completely this ability”. Moreover, the results for the 50% inhibitory concentration (IC50) against F978C mutant Pgp [11], against V982C mutant Pgp [12] and against cysless WT Pgp [3] were 3600 nM, 700 nM and 140 ± 30 nM, respectively.
